Results taken from US12364713B2, “Coagulation mold, a kit and a method for preparing a coagulated blood mass” (Reddress Ltd., priority 2022, dated 2025).
“And” between values parts separate entries of the source, which are not always exact repeats. Equal values may be shown once.

Tested on: whole blood
Experiment: Calcium Gluconate (CG) Powder Test: coagulation of whole blood with varying CG amounts
Protocol: A standard amount of ACD-A anticoagulant and Kaoiln powder per 1 ml of whole blood was used • 2 ml of ACD-A for 15 ml blood=0.133 ml ACD-A/1 ml blood • 28 mg Kaolin powder for 15 ml blood=1.87 mg Kaolin/1 ml blood
Different amounts of CG where tested-CG particle size after sifting is 125 micron • 20 mg for 15 ml of blood=1.33 mgCG/1 ml blood • 50 mg for 15 ml of blood=3.33 mgCG/1 ml blood • 85 mg for 15 ml of blood=5.66 mgCG/1 ml blood • 110 mg for 15 ml of blood=7.33 mgCG/1 ml blood • 140 mg for 15 ml of blood=9.33 mgCG/1 ml blood
Coagulation time and clot structure strength were documented. Blood samples of 5 different volunteers were used.

[1] = 20 mg CG for 15 ml blood, Average of 5 volunteers
[2] = 50 mg CG for 15 ml blood, Average of 5 volunteers
[3] = 85 mg CG for 15 ml blood, Average of 5 volunteers
[4] = 110 mg CG for 15 ml blood, Average of 5 volunteers
[5] = 140 mg CG for 15 ml blood, Average of 5 volunteers

Calcium Gluconate [CG]
Coagulation time (20 mg CG for 15 ml blood, 2 ml ACD-A, 28 mg Kaolin, individual volunteers #1-#5, good time is under 6 minutes): 17 and 14 and 12 and 14.5 and 15
Clot strength [1]: Low
Coagulation time [1]: 14.5
Clot strength (20 mg CG for 15 ml blood, individual volunteers, visual): Low
Coagulation time (50 mg CG for 15 ml blood, 2 ml ACD-A, 28 mg Kaolin, individual volunteers #1-#5, good time is under 6 minutes): 6.7 and 5.4 and 6 and 6.6 and 6.8
Clot strength [2]: Medium
Coagulation time [2]: 6.3
Clot strength (50 mg CG for 15 ml blood, individual volunteers, visual): Medium
Coagulation time (85 mg CG for 15 ml blood, 2 ml ACD-A, 28 mg Kaolin, individual volunteers #1-#5, good time is under 6 minutes): 4.8 (2×) and 4.6 (2×) and 4.7
Clot strength [3]: Strong
Coagulation time [3]: 4.88
Clot strength (85 mg CG for 15 ml blood, individual volunteers, visual): Strong
Coagulation time (110 mg CG for 15 ml blood, 2 ml ACD-A, 28 mg Kaolin, individual volunteers #1-#5, good time is under 6 minutes): 4.7 and 5.2 and 4.6 and 4.9 and 5
Clot strength [4]: Strong
Coagulation time [4]: 4.7
Clot strength (110 mg CG for 15 ml blood, individual volunteers, visual): Strong
Coagulation time (140 mg CG for 15 ml blood, 2 ml ACD-A, 28 mg Kaolin, individual volunteers #1-#5, good time is under 6 minutes): 4.8 and 4.7 and 5 and 5.2 and 4.9
Clot strength [5]: Strong
Coagulation time [5]: 4.92
Clot strength (140 mg CG for 15 ml blood, individual volunteers, visual): Strong
